Measurements from ChEMBL document CHEMBL1153884, “Oligonucleotide-polyamine conjugates: influence of length and position of 2'-attached polyamines on duplex stability and antisense effect” (2009).

How the values were obtained:
Nucleic Acid [1] = test: Duplex stability of DNA counter strand assessed as melting temperature; type: nucleic-acid assay
[2] = Antisense effect in human 607B cells assessed as down-regulation of bcl2 expression at 100 nM after 48 hrs by Western blot analysis relative to control; type: functional
Nucleic Acid [3] = test: Duplex stability of RNA counter strand assessed as melting temperature; type: nucleic-acid assay

SMILES | Tm (Nucleic Acid [1]) | Tm (Nucleic Acid [3]) | Activity [2]
Cc1cn([C@H]2C[C@H](OP(O)(=S)OC[C@H]3O[C@@H](n4ccc(N)nc4=O)[C@H](O)[C@@H]3OP(O)(=S)OC[C@H]3O[C@@H](n4cc(C)c(=O)[nH]c4=O)C[C@@H]3O)[C@@H](COP(O)(=S)O[C@H]3[C@@H](O)[C@H](n4ccc(N)nc4=O)O[C@@H]3COP(O)(=S)O[C@H]3[C@@H](O)[C@H](n4ccc(N)nc4=O)O[C@@H]3COP(O)(=S)O[C@H]3[C@@H](O)[C@H](n4ccc(N)nc4=O)O[C@@H]3COP(O)(=S)O[C@H]3[C@@H](O)[C@H](n4cnc5c(N)ncnc54)O[C@@H]3COP(O)(=S)O[C@H]3[C@@H](O)[C@H](n4cnc5c(=O)[nH]c(N)nc54)O[C@@H]3COP(O)(=S)O[C@H]3[C@@H](O)[C@H](n4ccc(N)nc4=O)O[C@@H]3COP(O)(=S)O[C@H]3[C@@H](O)[C@H](n4cnc5c(=O)[nH]c(N)nc54)O[C@@H]3COP(O)(=S)O[C@H]3C[C@H](n4cc(C)c(=O)[nH]c4=O)O[C@@H]3COP(O)(=S)O[C@H]3[C@@H](O)[C@H](n4cnc5c(=O)[nH]c(N)nc54)O[C@@H]3COP(O)(=S)O[C@H]3[C@@H](O)[C@H](n4ccc(N)nc4=O)O[C@@H]3COP(O)(=S)O[C@H]3[C@@H](O)[C@H](n4cnc5c(=O)[nH]c(N)nc54)O[C@@H]3COP(O)(=S)O[C@H]3[C@@H](O)[C@H](n4ccc(N)nc4=O)O[C@@H]3COP(O)(=S)O[C@H]3[C@@H](O)[C@H](n4ccc(N)nc4=O)O[C@@H]3COP(O)(=S)O[C@H]3[C@@H](O)[C@H](n4cnc5c(N)ncnc54)O[C@@H]3COP(O)(=S)O[C@H]3[C@@H](NCCCNCCCCNCCCNCCCN)[C@H](n4ccc(=O)[nH]c4=O)O[C@@H]3CO)O2)c(=O)[nH]c1=O (some centres not stated) | 71.6 °C | 53.6 °C | 18.5%
Cc1cn([C@H]2C[C@H](OP(O)(=S)OC[C@H]3O[C@@H](n4ccc(N)nc4=O)[C@H](O)[C@@H]3OP(O)(=S)OC[C@H]3O[C@@H](n4cc(C)c(=O)[nH]c4=O)C[C@@H]3O)[C@@H](COP(O)(=S)O[C@H]3[C@@H](O)[C@H](n4ccc(N)nc4=O)O[C@@H]3COP(O)(=S)O[C@H]3[C@@H](O)[C@H](n4ccc(N)nc4=O)O[C@@H]3COP(O)(=S)O[C@H]3[C@@H](O)[C@H](n4ccc(N)nc4=O)O[C@@H]3COP(O)(=S)O[C@H]3[C@@H](O)[C@H](n4cnc5c(N)ncnc54)O[C@@H]3COP(O)(=S)O[C@H]3[C@@H](O)[C@H](n4cnc5c(=O)[nH]c(N)nc54)O[C@@H]3COP(O)(=S)O[C@H]3[C@@H](O)[C@H](n4ccc(N)nc4=O)O[C@@H]3COP(O)(=S)O[C@H]3[C@@H](O)[C@H](n4cnc5c(=O)[nH]c(N)nc54)O[C@@H]3COP(O)(=S)O[C@H]3C[C@H](n4cc(C)c(=O)[nH]c4=O)O[C@@H]3COP(O)(=S)O[C@H]3[C@@H](O)[C@H](n4cnc5c(=O)[nH]c(N)nc54)O[C@@H]3COP(O)(=S)O[C@H]3[C@@H](O)[C@H](n4ccc(N)nc4=O)O[C@@H]3COP(O)(=S)O[C@H]3[C@@H](O)[C@H](n4cnc5c(=O)[nH]c(N)nc54)O[C@@H]3COP(O)(=S)O[C@H]3[C@@H](O)[C@H](n4ccc(N)nc4=O)O[C@@H]3COP(O)(=S)O[C@H]3[C@@H](O)[C@H](n4ccc(N)nc4=O)O[C@@H]3COP(O)(=S)O[C@H]3[C@@H](O)[C@H](n4cnc5c(N)ncnc54)O[C@@H]3COP(O)(=S)O[C@H]3[C@@H](NCCCNCCCCNCCCN)[C@H](n4ccc(=O)[nH]c4=O)O[C@@H]3CO)O2)c(=O)[nH]c1=O (some centres not stated) | 68.5 °C | 53.5 °C | 19.4%
Cc1cn([C@H]2C[C@H](OP(=O)(O)OC[C@H]3O[C@@H](n4cnc5c(N)ncnc54)[C@H](O)[C@@H]3OP(=O)(O)OC[C@H]3O[C@@H](n4ccc(N)nc4=O)[C@H](O)[C@@H]3OP(=O)(O)OC[C@H]3O[C@@H](n4ccc(N)nc4=O)[C@H](O)[C@@H]3OP(=O)(O)OC[C@H]3O[C@@H](n4cnc5c(=O)[nH]c(N)nc54)[C@H](O)[C@@H]3OP(=O)(O)OC[C@H]3O[C@@H](n4ccc(N)nc4=O)[C@H](O)[C@@H]3OP(=O)(O)OC[C@H]3O[C@@H](n4cnc5c(=O)[nH]c(N)nc54)[C@H](O)[C@@H]3OP(=O)(O)OC[C@H]3O[C@@H](n4cc(C)c(=O)[nH]c4=O)C[C@@H]3OP(=O)(O)OC[C@H]3O[C@@H](n4cnc5c(=O)[nH]c(N)nc54)[C@H](O)[C@@H]3OP(=O)(O)OC[C@H]3O[C@@H](n4ccc(N)nc4=O)[C@H](O)[C@@H]3OP(=O)(O)OC[C@H]3O[C@@H](n4cnc5c(=O)[nH]c(N)nc54)[C@H](O)[C@@H]3OP(=O)(O)OC[C@H]3O[C@@H](n4cnc5c(N)ncnc54)[C@H](O)[C@@H]3OP(=O)(O)OC[C@H]3O[C@@H](n4ccc(N)nc4=O)[C@H](O)[C@@H]3OP(=O)(O)OC[C@H]3O[C@@H](n4ccc(N)nc4=O)[C@H](O)[C@@H]3OP(=O)(O)OC[C@H]3O[C@@H](n4ccc(N)nc4=O)[C@H](O)[C@@H]3OP(=O)(O)OC[C@H]3O[C@@H](n4cc(C)c(=O)[nH]c4=O)C[C@@H]3OP(=O)(O)OC[C@H]3O[C@@H](n4ccc(N)nc4=O)[C@H](O)[C@@H]3OP(=O)(O)OC[C@H]3O[C@@H](n4cc(C)c(=O)[nH]c4=O)C[C@@H]3O)[C@@H](CO)O2)c(=O)[nH]c1=O | 79 °C | 65.3 °C | –

Now from value to compound, other results behind:

Tm (Nucleic Acid [1]) | Tm (Nucleic Acid [3]) | SMILES | Activity [2]
65.1 °C | 51.4 °C | Cc1cn([C@H]2C[C@H](OP(O)(=S)OC[C@H]3O[C@@H](n4ccc(N)nc4=O)[C@H](O)[C@@H]3OP(O)(=S)OC[C@H]3O[C@@H](n4cc(C)c(=O)[nH]c4=O)C[C@@H]3O)[C@@H](COP(O)(=S)O[C@H]3[C@@H](O)[C@H](n4ccc(N)nc4=O)O[C@@H]3COP(O)(=S)O[C@H]3[C@@H](O)[C@H](n4ccc(N)nc4=O)O[C@@H]3COP(O)(=S)O[C@H]3[C@@H](O)[C@H](n4ccc(N)nc4=O)O[C@@H]3COP(O)(=S)O[C@H]3[C@@H](O)[C@H](n4cnc5c(N)ncnc54)O[C@@H]3COP(O)(=S)O[C@H]3[C@@H](O)[C@H](n4cnc5c(=O)[nH]c(N)nc54)O[C@@H]3COP(O)(=S)O[C@H]3[C@@H](O)[C@H](n4ccc(N)nc4=O)O[C@@H]3COP(O)(=S)O[C@H]3[C@@H](O)[C@H](n4cnc5c(=O)[nH]c(N)nc54)O[C@@H]3COP(O)(=S)O[C@H]3C[C@H](n4cc(C)c(=O)[nH]c4=O)O[C@@H]3COP(O)(=S)O[C@H]3[C@@H](O)[C@H](n4cnc5c(=O)[nH]c(N)nc54)O[C@@H]3COP(O)(=S)O[C@H]3[C@@H](O)[C@H](n4ccc(N)nc4=O)O[C@@H]3COP(O)(=S)O[C@H]3[C@@H](O)[C@H](n4cnc5c(=O)[nH]c(N)nc54)O[C@@H]3COP(O)(=S)O[C@H]3[C@@H](O)[C@H](n4ccc(N)nc4=O)O[C@@H]3COP(O)(=S)O[C@H]3[C@@H](O)[C@H](n4ccc(N)nc4=O)O[C@@H]3COP(O)(=S)O[C@H]3[C@@H](O)[C@H](n4cnc5c(N)ncnc54)O[C@@H]3COP(O)(=S)O[C@H]3[C@@H](NCCCCNCCN)[C@H](n4ccc(=O)[nH]c4=O)O[C@@H]3CO)O2)c(=O)[nH]c1=O (some centres not stated) | 57.6%
67.6 °C | 50.1 °C | Cc1cn([C@H]2C[C@H](OP(O)(=S)OC[C@H]3O[C@@H](n4ccc(N)nc4=O)[C@H](O)[C@@H]3OP(O)(=S)OC[C@H]3O[C@@H](n4cc(C)c(=O)[nH]c4=O)C[C@@H]3O)[C@@H](COP(O)(=S)O[C@H]3[C@@H](O)[C@H](n4ccc(N)nc4=O)O[C@@H]3COP(O)(=S)O[C@H]3[C@@H](O)[C@H](n4ccc(N)nc4=O)O[C@@H]3COP(O)(=S)O[C@H]3[C@@H](O)[C@H](n4ccc(N)nc4=O)O[C@@H]3COP(O)(=S)O[C@H]3[C@@H](O)[C@H](n4cnc5c(N)ncnc54)O[C@@H]3COP(O)(=S)O[C@H]3[C@@H](O)[C@H](n4cnc5c(=O)[nH]c(N)nc54)O[C@@H]3COP(O)(=S)O[C@H]3[C@@H](O)[C@H](n4ccc(N)nc4=O)O[C@@H]3COP(O)(=S)O[C@H]3[C@@H](O)[C@H](n4cnc5c(=O)[nH]c(N)nc54)O[C@@H]3COP(O)(=S)O[C@H]3C[C@H](n4cc(C)c(=O)[nH]c4=O)O[C@@H]3COP(O)(=S)O[C@H]3[C@@H](O)[C@H](n4cnc5c(=O)[nH]c(N)nc54)O[C@@H]3COP(O)(=S)O[C@H]3[C@@H](O)[C@H](n4ccc(N)nc4=O)O[C@@H]3COP(O)(=S)O[C@H]3[C@@H](O)[C@H](n4cnc5c(=O)[nH]c(N)nc54)O[C@@H]3COP(O)(=S)O[C@H]3[C@@H](O)[C@H](n4ccc(N)nc4=O)O[C@@H]3COP(O)(=S)O[C@H]3[C@@H](O)[C@H](n4ccc(N)nc4=O)O[C@@H]3COP(O)(=S)O[C@H]3[C@@H](O)[C@H](n4cnc5c(N)ncnc54)O[C@@H]3COP(O)(=S)O[C@H]3[C@@H](NCCCCN)[C@H](n4ccc(=O)[nH]c4=O)O[C@@H]3CO)O2)c(=O)[nH]c1=O (some centres not stated) | 70.6%
71.4 °C | 53.1 °C | Cc1cn([C@H]2C[C@H](OP(O)(=S)OC[C@H]3O[C@@H](n4cnc5c(N)ncnc54)[C@H](O)[C@@H]3OP(O)(=S)OC[C@H]3O[C@@H](n4ccc(N)nc4=O)[C@H](O)[C@@H]3OP(O)(=S)OC[C@H]3O[C@@H](n4ccc(N)nc4=O)[C@H](O)[C@@H]3OP(O)(=S)OC[C@H]3O[C@@H](n4cnc5c(=O)[nH]c(N)nc54)[C@H](O)[C@@H]3OP(O)(=S)OC[C@H]3O[C@@H](n4ccc(N)nc4=O)[C@H](O)[C@@H]3OP(O)(=S)OC[C@H]3O[C@@H](n4cnc5c(=O)[nH]c(N)nc54)[C@H](O)[C@@H]3OP(O)(=S)OC[C@H]3O[C@@H](n4cc(C)c(=O)[nH]c4=O)C[C@@H]3OP(O)(=S)OC[C@H]3O[C@@H](n4cnc5c(=O)[nH]c(N)nc54)[C@H](O)[C@@H]3OP(O)(=S)OC[C@H]3O[C@@H](n4ccc(N)nc4=O)[C@H](O)[C@@H]3OP(O)(=S)OC[C@H]3O[C@@H](n4cnc5c(=O)[nH]c(N)nc54)[C@H](O)[C@@H]3OP(O)(=S)OC[C@H]3O[C@@H](n4cnc5c(N)ncnc54)[C@H](O)[C@@H]3OP(O)(=S)OC[C@H]3O[C@@H](n4ccc(N)nc4=O)[C@H](O)[C@@H]3OP(O)(=S)OC[C@H]3O[C@@H](n4ccc(N)nc4=O)[C@H](O)[C@@H]3OP(O)(=S)OC[C@H]3O[C@@H](n4ccc(N)nc4=O)[C@H](O)[C@@H]3OP(O)(=S)OC[C@H]3O[C@@H](n4cc(C)c(=O)[nH]c4=O)C[C@@H]3OP(O)(=S)OC[C@H]3O[C@@H](n4ccc(N)nc4=O)[C@H](O)[C@@H]3OP(O)(=S)OC[C@H]3O[C@@H](n4cc(C)c(=O)[nH]c4=O)C[C@@H]3O)[C@@H](CO)O2)c(=O)[nH]c1=O (some centres not stated) | 25%
